Source: patent publication US20220313698A1, “MODULATORS OF CYSTIC FIBROSIS TRANSMEMBRANE CONDUCTANCE REGULATOR” (Vertex Pharmaceuticals Incorporated, priority 2019, published 2022)

Molecular target: CFTR-mediated chloride transport (Homo sapiens, UniProt P13569)
Test: Corrector Assay A - membrane potential dye assay (enteroid cells)
Details: for Corrector Assay A % activity: % of chloride transport of triple combination control (1 μM (14S)-dispiro macrocycle + 3 μM tezacaftor + 300 nM ivacaftor); for EC50: read-out: Corrector Assay A EC50, human intestinal enteroid cells, 18-24 h incubation, acute 10 μM forskolin + 300 nM ivacaftor

`CC1(C)CC=C(c2ccc3c(n2)N2C[C@@H](CC[C@H](c4ccccn4)Nc4cccc(n4)S(=O)(=O)NC3=O)CC2(C)C)CC1` [Compound 327] was tested. Which “Corrector Assay A % activity” value did it give?
Its value is “+++ (+++ is >60%)”.

And the EC50?
Its EC50 is under 1000 nM.

How did the “Corrector Assay A % activity” value turn out when `CC(C)(C)c1ccc2c(n1)N1C[C@@H](CCC(CCC(C3CC3)C3CC3)Nc3cccc(n3)S(=O)(=O)NC2=O)CC1(C)C` (single isomer, unassigned) [Compound 51] was run?
Its value is “+ (+ is <30%)”.

And the EC50?
Its EC50 is over 3000 nM.

What does the source list for `Cn1ccc(-c2ccc(C3CC[C@@H]4CN(c5nc(C(C)(C)C)ccc5C(=O)NS(=O)(=O)c5cccc(n5)N3)C(C)(C)C4)nc2)n1` (stereo partly shown) [Compound 59]?
Corrector Assay A % activity: + (+ is <30%); EC50: < 1000 nM

Which “Corrector Assay A % activity” value does the source give for `CC(C)COc1cc(F)cc(-c2ccc3c(n2)N2C[C@@H](CCC(c4ccccn4)Nc4cccc(n4)S(=O)(=O)NC3=O)CC2(C)C)c1` (single isomer, unassigned) [Compound 351] here?
The value was “+++ (+++ is >60%)”.

And the EC50?
The EC50 was under 1000 nM.

How did the “Corrector Assay A % activity” value turn out when `CC(C)(C)c1ccc2c(n1)N1C[C@@H](CC[C@@H](c3cc(C4=CCOCC4)ccn3)Nc3cccc(n3)S(=O)(=O)NC2=O)CC1(C)C` (single isomer, unassigned) [Compound 125] was run?
Its value is “+++ (+++ is >60%)”.

And the EC50?
The EC50 was under 1000 nM.

Which results are given for `CC(C)(C)c1ccc2c(n1)N1C[C@@H](CC[C@@H](c3cc(-c4cn[nH]c4)ccn3)Nc3cccc(n3)S(=O)(=O)NC2=O)CC1(C)C` (single isomer, unassigned) [Compound 68]?
Corrector Assay A % activity: +++ (+++ is >60%); EC50: < 1000 nM

How did the “Corrector Assay A % activity” value turn out when `CC(C)(C)c1ccc2c(n1)N1C[C@@H](CC[C@H](c3cccc(C(F)(F)F)n3)Nc3cccc(n3)S(=O)(=O)NC2=O)CC1(C)C` (single isomer, unassigned) [Compound 94] was run?
Its value is “++ (++ is 30-60%)”.

And the EC50?
Its EC50 is under 1000 nM.

With `CC(C)(C)c1ccc2c(n1)N1C[C@@H](CCC(C(=O)NC3CC4(CCNCC4)C3)Nc3cccc(n3)S(=O)(=O)NC2=O)CC1(C)C` (single isomer, unassigned) [Compound 222] as the molecule, how does the “Corrector Assay A % activity” value read?
Its value is “++ (++ is 30-60%)”.

What about the EC50 of the same molecule?
The EC50 was over 3000 nM.

Which “Corrector Assay A % activity” value does the source give for `CC1(C)CC2CCC(c3ccccn3)Nc3cccc(n3)S(=O)(=O)NC(=O)c3ccc(-n4ccc(OCCC5C6(CC6)C56CC6)n4)nc3N1C2` [Compound 356, (14S)-8-13-(2-{dispiro[2.0.2.11heptan-7-yl}ethoxy)-1H-pyrazol-1-yl]-12,12-dimethyl-17-(pyridin-2-yl)-2λ^6-thia-3,9,11,18,23-pentaazatetracyclo[17.3.1.111,14.05,10]tetracosa-1(22),5,7,9,19(23),20-hexaene-2,2,4-trione] here?
Its value is “+++ (+++ is >60%)”.

And the EC50?
Its EC50 is under 1000 nM.

How did the “Corrector Assay A % activity” value turn out when `CC(C)(C)c1ccc2c(n1)N1CC(CCCOc3cccc(c3)S(=O)(=O)NC2=O)CC1(C)C` (single isomer, unassigned) [Compound 257, 8-tert-Butyl-12,12-dimethyl-18-oxa-2λ^6-thia-3,9,11-triazatetracyclo[17.3.1.111,14.05,10]tetracosa-1(22),5,7,9,19(23),20-hexaene-2,2,4-trione] was run?
Its value is “+ (+ is <30%)”.

Which results are given for `CC(C)(C)c1ccc2c(n1)N1C[C@@H](CCC(c3cc(C#N)ccn3)Nc3cccc(n3)S(=O)(=O)NC2=O)CC1(C)C` (single isomer, unassigned) [Compound 144]?
Corrector Assay A % activity: +++ (+++ is >60%); EC50: < 1000 nM

`CN(C)Cc1ccnc([C@@H]2CC[C@@H]3CN(c4nc(C(C)(C)C)ccc4C(=O)NS(=O)(=O)c4cccc(n4)N2)C(C)(C)C3)c1` (single isomer, unassigned) [Compound 87] was tested. Which “Corrector Assay A % activity” value did it give?
The value was “+ (+ is <30%)”.

What about the EC50 of the same molecule?
The EC50 was under 1000 nM.

For `CC(C)CC#Cc1ccc2c(n1)N1C[C@@H](CC[C@H](c3ccccn3)Nc3cccc(n3)S(=O)(=O)NC2=O)CC1(C)C` [Compound 157, (14S,17R)-12,12-dimethyl-8-(4-methylpent-1-yn-1-yl)-17-(pyridin-2-yl)-2λ^6-thia-3,9,11,18,23-pentaazatetracyclo[17.3.1.111,14.05,10]tetracosa-1(22),5,7,9,19(23),20-hexaene-2,2,4-trione], which “Corrector Assay A % activity” value is on record?
Its value is “+++ (+++ is >60%)”.

What about the EC50 of the same molecule?
The EC50 was under 1000 nM.

How did the “Corrector Assay A % activity” value turn out when `COC(=O)NCc1ccnc(C2CC[C@@H]3CN(c4nc(C(C)(C)C)ccc4C(=O)NS(=O)(=O)c4cccc(n4)N2)C(C)(C)C3)c1` (single isomer, unassigned) [Compound 107] was run?
The value was “++ (++ is 30-60%)”.

What about the EC50 of the same molecule?
Its EC50 is under 1000 nM.

Which results are given for `C=CCC1CC[C@@H]2CN(c3nc(C(C)(C)C)ccc3C(=O)NS(=O)(=O)c3cccc(n3)N1)C(C)(C)C2` (single isomer, unassigned) [Compound 35]?
Corrector Assay A % activity: ++ (++ is 30-60%); EC50: < 1000 nM

For `CC(C)(C)c1ccc2c(n1)N1C[C@@H](CC[C@H](c3cccc(C4=CCNCC4)n3)Nc3cccc(n3)S(=O)(=O)NC2=O)CC1(C)C` [Compound 142, (14S,17R)-8-tert-Butyl-12,12-dimethyl-17-{1′,2′,3′,6′-tetrahydro-[2,4′-bipyridine]-6-yl}-2λ^6-thia-3,9,11,18,23-pentaazatetracyclo [17.3.1.111,14.05,10]tetracosa-1(23),5(10),6,8,19,21-hexaene-2,2,4-trione], which “Corrector Assay A % activity” value is on record?
Its value is “+++ (+++ is >60%)”.

And the EC50?
The EC50 was under 1000 nM.

How did the “Corrector Assay A % activity” value turn out when `CCOc1cccc(-c2ccc3c(n2)N2C[C@@H](CC[C@@H](c4ccccn4)Nc4cccc(n4)S(=O)(=O)NC3=O)CC2(C)C)n1` [Compound 317] was run?
The value was “++ (++ is 30-60%)”.

And the EC50?
Its EC50 is under 1000 nM.

For `CC(C)(C)c1ccc2c(n1)N1C[C@@H](CCC(c3ccc(C4CNC4)cn3)Nc3cccc(n3)S(=O)(=O)NC2=O)CC1(C)C` (stereo partly shown) [Compound 166], which “Corrector Assay A % activity” value is on record?
Its value is “+++ (+++ is >60%)”.

And the EC50?
The EC50 was under 1000 nM.

With `CC(C)(C)c1ccc2c(n1)N1C[C@@H](CCC(c3ccc(CCN)cn3)Nc3cccc(n3)S(=O)(=O)NC2=O)CC1(C)C` (stereo partly shown) [Compound 114] as the molecule, how does the “Corrector Assay A % activity” value read?
The value was “++ (++ is 30-60%)”.

And the EC50?
Its EC50 is under 1000 nM.

What does the source list for `CC(C)(C)c1ccc2c(n1)N1C[C@@H](CC[C@@H](c3ccncn3)Nc3cccc(n3)S(=O)(=O)NC2=O)CC1(C)C` (single isomer, unassigned) [Compound 217]?
Corrector Assay A % activity: ++ (++ is 30-60%); EC50: < 1000 nM

What does the source list for `CC(C)(C)OC(=O)N1CCC(c2ccnc(C3CC[C@@H]4CN(c5nc(C(C)(C)C)ccc5C(=O)NS(=O)(=O)c5cccc(n5)N3)C(C)(C)C4)c2)CC1` (stereo partly drawn) [Compound 118, tert-butyl 4-{2-[(14S)-8-tert-butyl-12,12-dimethyl-2,2,4-trioxo-2λ^6-thia-3,9,11,18,23-pentaazatetracyclo[17.3.1.111,14.05,10]tetracosa-1(23),5(10),6,8,19,21-hexaen-17-yl]pyridin-4-yl}piperidine-1-carboxylate]?
Corrector Assay A % activity: ++ (++ is 30-60%); EC50: < 1000 nM

What does the source list for `CC(C)(C)c1ccc2c(n1)N1C[C@@H](CC[C@@H](c3cccc(C4=CCOCC4)n3)Nc3cccc(n3)S(=O)(=O)NC2=O)CC1(C)C` [Compound 149]?
Corrector Assay A % activity: + (+ is <30%); EC50: < 1000 nM
